As usually defined, the IC50 is the concentration needed to halve the response being measured.

In one assay the test system is A549. The experiment in a line: Antiproliferative activity against human A549 cells assessed as inhibition of cell growth after 72 hrs by MTT-based assay. It is filed as functional. The conditions noted are these: A549, 72 h.
Assay [1] in a line: cells. The conditions noted are these: Homo sapiens, HCT-116, 72 h. It is filed as functional, cell-based.
Description: Antiproliferative activity against human HCT116 cells assessed as inhibition of cell growth after 72 hrs by MTT-based assay
For a further assay, the target named is T1, Histone deacetylase 8 (Homo sapiens, UniProt Q9BY41).
T1 sequence (Q9BY41 whole entry): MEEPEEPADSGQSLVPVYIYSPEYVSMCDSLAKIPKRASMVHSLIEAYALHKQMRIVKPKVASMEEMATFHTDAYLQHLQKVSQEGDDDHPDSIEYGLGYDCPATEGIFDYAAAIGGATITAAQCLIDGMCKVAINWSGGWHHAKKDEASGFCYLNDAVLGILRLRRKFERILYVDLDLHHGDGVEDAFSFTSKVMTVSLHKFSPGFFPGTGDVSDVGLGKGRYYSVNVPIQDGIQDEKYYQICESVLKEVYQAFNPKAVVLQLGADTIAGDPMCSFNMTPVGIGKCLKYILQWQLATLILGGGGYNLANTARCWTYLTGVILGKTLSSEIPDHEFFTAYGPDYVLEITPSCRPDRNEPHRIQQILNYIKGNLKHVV
As to the kind of experiment: Inhibition of recombinant HDAC8 (unknown origin) using fluorogenic substrate Boc-Lys (acetyl)-AMC after 20 mins by homogeneous fluorescence release assay.

Another assay concerns MDA-MB-231. As to the kind of experiment: cells. To be noted: Homo sapiens, MDA-MB-231, 72 h. It is filed as functional, cell-based.
A further assay has as its target Histone deacetylase 2 (Homo sapiens, UniProt Q92769). The experiment in a line: Inhibition of recombinant HDAC2 (unknown origin) using fluorogenic substrate Boc-Lys (acetyl)-AMC after 20 mins by homogeneous fluorescence release assay.
A further assay deals with NCI-H661. As to the kind of experiment: Antiproliferative activity against human NCI-H661 cells assessed as inhibition of cell growth after 72 hrs by MTT-based assay. In kind it is functional. The conditions noted are these: NCI-H661, 72 h. On the technique in general: Tetrazolium dyes change colour on reduction, which living cells bring about.
The nature of assay [2]: cells. In kind it is functional, cell-based. The conditions noted are these: Homo sapiens, U-937, 72 h.
Description: Antiproliferative activity against human U937 cells assessed as inhibition of cell growth after 72 hrs by MTT-based assay
The next assay addresses Histone deacetylase 1 (Homo sapiens, UniProt Q13547). The experiment in a line: Inhibition of recombinant HDAC1 (unknown origin) using fluorogenic substrate Boc-Lys (acetyl)-AMC after 20 mins by homogeneous fluorescence release assay.

A value given as a limit tells only on which side of the number the result lay.

Sequence of Histone deacetylase 2 (Q92769 whole entry): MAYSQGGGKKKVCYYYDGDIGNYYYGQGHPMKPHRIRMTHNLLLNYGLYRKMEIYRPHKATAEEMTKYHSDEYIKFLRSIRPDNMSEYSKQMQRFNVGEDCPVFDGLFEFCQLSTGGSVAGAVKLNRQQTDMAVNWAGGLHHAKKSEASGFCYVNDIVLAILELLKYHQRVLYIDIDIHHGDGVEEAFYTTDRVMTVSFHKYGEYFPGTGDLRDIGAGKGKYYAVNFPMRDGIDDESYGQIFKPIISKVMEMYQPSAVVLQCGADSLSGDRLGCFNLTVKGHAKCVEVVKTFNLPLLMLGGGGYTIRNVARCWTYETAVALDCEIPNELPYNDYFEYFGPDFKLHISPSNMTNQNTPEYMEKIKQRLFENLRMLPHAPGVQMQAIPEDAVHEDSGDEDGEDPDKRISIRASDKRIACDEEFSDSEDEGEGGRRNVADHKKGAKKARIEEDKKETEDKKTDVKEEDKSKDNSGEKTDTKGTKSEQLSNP
Sequence of Histone deacetylase 1 (Q13547 whole entry): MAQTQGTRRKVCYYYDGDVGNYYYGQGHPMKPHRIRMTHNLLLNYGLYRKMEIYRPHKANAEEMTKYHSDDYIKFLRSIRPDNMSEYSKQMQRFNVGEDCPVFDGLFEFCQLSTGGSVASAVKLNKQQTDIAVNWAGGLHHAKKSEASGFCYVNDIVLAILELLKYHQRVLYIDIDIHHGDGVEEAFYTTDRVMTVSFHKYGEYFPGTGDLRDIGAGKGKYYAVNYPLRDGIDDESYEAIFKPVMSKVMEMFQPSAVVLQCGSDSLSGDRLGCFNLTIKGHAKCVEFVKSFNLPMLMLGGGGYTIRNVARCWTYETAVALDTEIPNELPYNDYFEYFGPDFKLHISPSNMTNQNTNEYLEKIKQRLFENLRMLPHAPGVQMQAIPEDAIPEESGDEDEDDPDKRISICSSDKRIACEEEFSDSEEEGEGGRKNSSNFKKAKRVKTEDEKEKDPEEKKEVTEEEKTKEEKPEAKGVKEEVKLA
Description for MDA-MB-231: Antiproliferative activity against human MDA-MB-231 cells assessed as inhibition of cell growth after 72 hrs by MTT-based assay

Regarding `O=C(NO)c1ccc(CNCc2nc(-c3ccc(Cl)cc3)no2)cc1`, the IC50 with A549 was more than 100 µM; in the assay “cells [1]”, 30.2 µM; on Histone deacetylase 8, 0.35 µM; with MDA-MB-231 it was 10.9 µM; at Histone deacetylase 2, 8.52 µM; in the assay with NCI-H661, more than 100 µM. Further, the IC50 in the assay “cells [2]” came out at 5.29 µM; on Histone deacetylase 1, 3.85 µM.

`Nc1ccccc1NC(=O)c1ccc(CNCc2nc(-c3ccc(C(F)(F)F)cc3)no2)cc1`: the IC50 in the assay with A549 is 100 µM; in “cells [1]”, 19.7 µM; at Histone deacetylase 8, more than 10 µM; in the assay with MDA-MB-231, 6.87 µM; on Histone deacetylase 2, 5.93 µM; in the assay on NCI-H661 it was 23.5 µM. Besides, the IC50 in the assay “cells [2]” came out at 2.58 µM; on Histone deacetylase 1 it was 2.75 µM.

With `Nc1ccccc1NC(=O)c1ccc(CNCc2nc(-c3cccnc3)no2)cc1`, the IC50 in the assay with A549 is more than 100 µM; in the assay “cells [1]”, 43.6 µM; on Histone deacetylase 8, more than 10 µM; in the assay with MDA-MB-231 it was 21.2 µM; at Histone deacetylase 2, 8.37 µM; in the assay with NCI-H661 it was 100 µM. The IC50 in the assay “cells [2]” came out at 11 µM; at Histone deacetylase 1 it was 5.26 µM.

For `Nc1ccccc1NC(=O)c1ccc(CNCc2nc(-c3ccccc3Cl)no2)cc1`, the IC50 in the assay on A549 is 7.92 µM; in “cells [1]”, 1.23 µM; at Histone deacetylase 8, more than 10 µM; with MDA-MB-231 it was 3.57 µM; on Histone deacetylase 2, 0.32 µM; with NCI-H661, 3.33 µM. Also, the IC50 in the assay “cells [2]” was 0.38 µM; on Histone deacetylase 1, 0.07 µM.

Turning to `Cc1ccc(-c2noc(CNCc3ccc(C(=O)Nc4ccccc4N)cc3)n2)cc1`, the IC50 was 9.81 µM in the assay with A549; 6.55 µM in “cells [1]”; more than 10 µM on Histone deacetylase 8; 5.81 µM with MDA-MB-231; 0.56 µM at Histone deacetylase 2; 7.39 µM with NCI-H661. Further, the IC50 in the assay “cells [2]” came out at 0.97 µM; on Histone deacetylase 1 it was 0.21 µM.

`Cc1ccc(-c2noc(CNCc3ccc(C(=O)NO)cc3)n2)cc1`: the IC50 is more than 100 µM with A549; 27.8 µM in “cells [1]”; 1.25 µM at Histone deacetylase 8; 15.4 µM in the assay with MDA-MB-231; more than 10 µM on Histone deacetylase 2; more than 100 µM in the assay with NCI-H661. The figures for the IC50 in the assay “cells [2]” and at Histone deacetylase 1 were 7.83 µM and 6.86 µM, respectively.

With `O=C(NO)c1ccc(CNCc2nc(-c3ccc(C(F)(F)F)cc3)no2)cc1`, the IC50 with A549 is more than 100 µM; in “cells [1]” it was 43.1 µM; at Histone deacetylase 8, 1.36 µM; in the assay with MDA-MB-231, 12.3 µM; on Histone deacetylase 2, more than 10 µM; with NCI-H661, more than 100 µM. For the same compound, the results for the IC50 in “cells [2]” and at Histone deacetylase 1 were 8.05 µM and 9.63 µM, respectively.

`Nc1ccccc1NC(=O)c1ccc(CNCc2nc(-c3ccc(Cl)cc3)no2)cc1`: the IC50 is 13.5 µM in the assay on A549; 6.81 µM in “cells [1]”; more than 10 µM on Histone deacetylase 8; 5.12 µM with MDA-MB-231; 0.43 µM at Histone deacetylase 2; 8 µM in the assay on NCI-H661. Also, the IC50 was found to be 0.43 µM in “cells [2]” and 0.09 µM at Histone deacetylase 1.

Regarding `Nc1ccccc1NC(=O)c1ccc(CNCc2nc(-c3cccs3)no2)cc1`, the IC50 in the assay with A549 was more than 100 µM; in “cells [1]” it was 27.2 µM; on Histone deacetylase 8, more than 10 µM; in the assay with MDA-MB-231, 10.3 µM; on Histone deacetylase 2, 4.39 µM; with NCI-H661, 35.8 µM. In addition, the IC50 is 5.96 µM in “cells [2]” and 3.85 µM at Histone deacetylase 1.

For the compound `O=C(CCCCCCC(=O)Nc1ccccc1)NO` [VORINOSTAT], the IC50 in the assay on NCI-H661 worked out at 0.13 µM.

`Nc1ccccc1NC(=O)c1ccc(CNCc2nc(-c3ccc([N+](=O)[O-])cc3)no2)cc1`: the IC50 is 6.39 µM in the assay with A549; 2.33 µM in “cells [1]”; more than 10 µM on Histone deacetylase 8; 3.18 µM with MDA-MB-231; 0.15 µM at Histone deacetylase 2; 4.73 µM with NCI-H661. In addition, the IC50 in “cells [2]” turned out to be 0.52 µM; on Histone deacetylase 1, 0.06 µM.

As to `Nc1ccccc1NC(=O)c1ccc(CNCc2nc(-c3ccccc3)no2)cc1`, the IC50 with A549 was 10.8 µM; in the assay “cells [1]”, 8.63 µM; at Histone deacetylase 8, more than 10 µM; in the assay on MDA-MB-231, 7.69 µM; on Histone deacetylase 2 it was 0.53 µM; in the assay on NCI-H661, 11.8 µM. Further, the IC50 in the assay “cells [2]” was 1.63 µM; at Histone deacetylase 1, 0.28 µM.

Turning to `COc1ccc(-c2noc(CNCc3ccc(C(=O)Nc4ccccc4N)cc3)n2)cc1`, the IC50 is 7.95 µM in the assay on A549; 4.37 µM in “cells [1]”; more than 10 µM at Histone deacetylase 8; 5.53 µM in the assay with MDA-MB-231; 0.29 µM on Histone deacetylase 2; 5.77 µM in the assay with NCI-H661. Besides, the IC50 stood at 1.09 µM in “cells [2]” and 0.18 µM on Histone deacetylase 1.

Regarding `O=C(NO)c1ccc(CNCc2nc(-c3ccc(F)cc3)no2)cc1`, the half-maximal inhibitory concentration (IC50) was more than 100 µM with A549; 17.8 µM in the assay “cells [1]”; 0.23 µM at Histone deacetylase 8; 9.12 µM in the assay on MDA-MB-231; 7.69 µM at Histone deacetylase 2; more than 100 µM with NCI-H661. The IC50 amounted to 2.95 µM in the assay “cells [2]” and 3.53 µM on Histone deacetylase 1.

`COc1ccc(-c2noc(CNCc3ccc(C(=O)NO)cc3)n2)cc1`: the IC50 in the assay with A549 is more than 100 µM; in the assay “cells [1]” it was 18.6 µM; on Histone deacetylase 8, 0.86 µM; with MDA-MB-231, 8.93 µM; on Histone deacetylase 2, more than 10 µM; with NCI-H661, more than 100 µM. Also, the IC50 turned out to be 3.45 µM in the assay “cells [2]” and 8.32 µM at Histone deacetylase 1.

`O=C(NO)c1ccc(CNCc2nc(-c3ccc([N+](=O)[O-])cc3)no2)cc1`: the IC50 is more than 100 µM with A549; 21.9 µM in “cells [1]”; 0.38 µM on Histone deacetylase 8; 9.56 µM in the assay with MDA-MB-231; 9.23 µM at Histone deacetylase 2; more than 100 µM in the assay on NCI-H661. Also, the IC50 in “cells [2]” stood at 6.52 µM; on Histone deacetylase 1 it was 2.67 µM.

Take `Nc1ccccc1NC(=O)c1ccc(CNCc2nc(-c3ccc(F)cc3)no2)cc1`: the half-maximal inhibitory concentration (IC50) in the assay with A549 is 10.7 µM; in the assay “cells [1]”, 3.51 µM; on Histone deacetylase 8 it was more than 10 µM; in the assay on MDA-MB-231 it was 2.95 µM; on Histone deacetylase 2 it was 0.28 µM; with NCI-H661, 4.36 µM. Also, the IC50 in “cells [2]” was found to be 1.25 µM; on Histone deacetylase 1 it was 0.11 µM.

Consider `O=C(NO)c1ccc(CNCc2nc(-c3cccs3)no2)cc1`, for which the IC50 in the assay with A549 was more than 100 µM; in “cells [1]” it was more than 100 µM; on Histone deacetylase 8, 8.26 µM; with MDA-MB-231, 23.9 µM; on Histone deacetylase 2, more than 10 µM; with NCI-H661, more than 100 µM. Also, the values for the IC50 in the assay “cells [2]” and at Histone deacetylase 1 were 10.7 µM and more than 10 µM, respectively.

For the compound `Nc1ccccc1NC(=O)c1ccc(CNC(=O)OCc2cccnc2)cc1` [ENTINOSTAT], the 50% inhibitory concentration (IC50) with A549 was 5.41 µM; in the assay “cells [1]”, 0.78 µM; in the assay with MDA-MB-231 it was 4.63 µM; in the assay on NCI-H661, 2.19 µM; in “cells [2]”, 0.55 µM.

Turning to `O=C(NO)c1ccc(CNCc2nc(-c3ccccc3)no2)cc1`, the IC50 with A549 was more than 100 µM; in the assay “cells [1]” it was 29.3 µM; at Histone deacetylase 8 it was 0.2 µM; in the assay on MDA-MB-231 it was 14.7 µM; at Histone deacetylase 2 it was more than 10 µM; in the assay with NCI-H661 it was more than 100 µM. The IC50 in the assay “cells [2]” stood at 7.21 µM; on Histone deacetylase 1 it was 5.73 µM.

(Values after ChEMBL document CHEMBL3421568, “Discovery and preliminary evaluation of 2-aminobenzamide and hydroxamate derivatives containing 1,2,4-oxadiazole moiety as potent histone deacetylase inhibitors” (Eur J Med Chem, 2015).)
